Each molecule was assayed against T1, human PAH with the R408W mutation (Homo sapiens, UniProt P00439, R408W) (assay: Cell Based Phenylalanine Flux Assay). Conditions: A375 cells expressing human R408W PAH; 24 hrs with compound, then sepiapterin and 13C9,15N-Phenylalanine for 4 hours; 13C-Tyrosine by LC-MS; average where tested multiple times; read-out: AC50.
T1 construct: expressed in transfected cells
T1 sequence (P00439 1-452 R408W): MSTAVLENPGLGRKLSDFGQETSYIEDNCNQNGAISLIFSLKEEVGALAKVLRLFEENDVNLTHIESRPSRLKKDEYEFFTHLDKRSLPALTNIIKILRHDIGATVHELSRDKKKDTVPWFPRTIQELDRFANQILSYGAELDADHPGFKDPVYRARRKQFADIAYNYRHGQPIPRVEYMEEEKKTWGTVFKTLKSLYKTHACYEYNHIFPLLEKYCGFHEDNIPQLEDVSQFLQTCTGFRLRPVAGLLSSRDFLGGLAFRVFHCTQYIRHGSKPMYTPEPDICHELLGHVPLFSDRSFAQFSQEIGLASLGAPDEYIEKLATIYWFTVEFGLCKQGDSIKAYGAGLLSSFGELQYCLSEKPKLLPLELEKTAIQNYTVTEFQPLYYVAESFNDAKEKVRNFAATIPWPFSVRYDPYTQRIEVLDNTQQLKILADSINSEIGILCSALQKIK
Work on `CN(C)c1ccc2c(C(=O)N3CCc4[nH]cnc4[C@@H]3c3cc4cccc(Cl)n4n3)cnn2c1` [Example 2475, (R)-(4-(7-chloropyrazolo [1,5-a]pyridin-2-yl)-6,7-dihydro-1H-imidazo[4,5-c]pyridin-5(4H)-yl)(6-(dimethylamino)pyrazolo[1,5-a]pyridin-3-yl)methanone] yielded an AC50 of over 5000 nM.
For `Cc1nnc(C(=O)N2CCc3[nH]cnc3[C@H]2c2cc3c(C4CC4)cccn3n2)o1` [Example 2494, (S)-(4-(4-cyclopropylpyrazolo [1,5-a]pyridin-2-yl)-1,4,6,7-tetrahydro-5H-imidazo [4,5-c]pyridin-5-yl)(5-methyl-1,3,4-oxadiazol-2-yl)methanone], the AC50 was 1000 to 5000 nM.
`CC(C)c1cccn2nc([C@@H]3c4nc[nH]c4CCN3c3nnc(-c4cccnn4)o3)cc12` [Example 2512, (S)-2-(4-(4-isopropylpyrazolo [1,5-a]pyridin-2-yl)-1,4,6,7-tetrahydro-5H-imidazo [4,5-c]pyridin-5-yl)-5-(pyridazin-3-yl)-1,3,4-oxadiazole] showed an AC50 of 1000 to 5000 nM.
In the case of “(S)-(6-(methoxymethyl) pyrazolo[1,5-a]pyridin-3-yl)(4- (4-methylpyrazolo[1,5-a] pyridin-2-yl)-6,7-dihydro-1H- imidazo[4,5-c]pyridin- 5(4H)-yl)methanone [Example 1624]”, the AC50 is reported as 500 to 1000 nM.

Source: US12673961B2 (Agios Pharmaceuticals, Inc., priority 2022, dated 2026)
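Further: Ten-point dose curve from 2-fold serial dilutions, run in duplicate at 0.5% DMSO final, tracer step used 20 µM sepiapterin and 800 µM labeled phenylalanine.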
